Literature values as cited in patent US8697106B2, “Coating composition” (SurModics, Inc., priority 2006, dated 2014).

Columns and labels:
[1] = system-wide (systemic) concentration
bacteria = conditions: effective systemic concentration

NC[C@H]1O[C@H](O[C@H]2[C@H](O)[C@@H](O[C@H]3O[C@H](CO)[C@@H](O)[C@H](N)[C@H]3O)[C@H](N)C[C@@H]2N)[C@H](N)C[C@@H]1O [tobramycin]
system-wide toxic concentration [1]: about 400 mcg/ml
effective concentration to actively control bacteria (bacteria): ≤ 4 µg/mL
